Tests used:
Assay type in all cases: functional
Spodoptera frugiperda [1] = assay: Insecticidal activity against Spodoptera frugiperda (fall armyworm) assessed as mean emergence days at 25 ug/ml in artificial diet (reference value: 33 days)
Spodoptera frugiperda [2] = assay: Insecticidal activity against Spodoptera frugiperda (fall armyworm) assessed as mean time to pupation at 5 ug/ml in artificial diet (reference value: 22 days)
Spodoptera frugiperda [3] = assay: Insecticidal activity against Spodoptera frugiperda (fall armyworm) assessed as mean emergence days at 52 ug/ml in artificial diet (reference value: 33 days)
Spodoptera frugiperda [4] = assay: Insecticidal activity against Spodoptera frugiperda (fall armyworm) assessed as mean length at 5 ug/ml in artificial diet measured after 7 days (reference value: 28 +/- 4.1 mg)
Spodoptera frugiperda [5] = assay: Insecticidal activity against Spodoptera frugiperda (fall armyworm) assessed as mean weight gain at 70 ug/ml in artificial diet measured after 7 days (reference value: 75.5 +/- 8.24 mg)
Spodoptera frugiperda [6] = assay: Insecticidal activity against Spodoptera frugiperda (fall armyworm) assessed as mean weight of pupae at 5 ug/ml in artificial diet (reference value: 281.5 +/- 10.3 mg)
Spodoptera frugiperda [7] = assay: Insecticidal activity against Spodoptera frugiperda (fall armyworm) assessed as mean time to pupation at 52 ug/ml in artificial diet (reference value: 22 days)
Spodoptera frugiperda [8] = assay: Insecticidal activity against Spodoptera frugiperda (fall armyworm) assessed as mean weight gain at 25 ug/ml in artificial diet measured after 7 days (reference value: 469.5 +/- 6.59 mg)
Spodoptera frugiperda [9] = assay: Insecticidal activity against Spodoptera frugiperda (fall armyworm) assessed as mean weight gain at 5 ug/ml in artificial diet measured after 7 days (reference value: 469.5 +/- 6.59 mg)
Spodoptera frugiperda [10] = assay: Insecticidal activity against Spodoptera frugiperda (fall armyworm) assessed as mean weight of pupae at 25 ug/ml in artificial diet (reference value: 281.5 +/- 10.3 mg)
Spodoptera frugiperda [11] = assay: Insecticidal activity against Spodoptera frugiperda (fall armyworm) assessed as mean pupation at 52 ug/ml in artificial diet (reference value: 87.5 %)
Spodoptera frugiperda [12] = assay: Insecticidal activity against Spodoptera frugiperda (fall armyworm) assessed as mean weight gain at 5 ug/ml in artificial diet measured after 7 days (reference value: 75.5 +/- 8.24 mg)
Spodoptera frugiperda [13] = assay: Insecticidal activity against Spodoptera frugiperda (fall armyworm) assessed as mortality at 5 ug/ml in artificial diet measured after 7 days (reference value: 8.33%); conditions: 168 h
Spodoptera frugiperda [14] = assay: Insecticidal activity against Spodoptera frugiperda (fall armyworm) assessed as mean weight gain at 25 ug/ml in artificial diet measured after 7 days (reference value: 75.5 +/- 8.24 mg)
Spodoptera frugiperda [15] = assay: Insecticidal activity against Spodoptera frugiperda (fall armyworm) assessed as mean weight of pupae at 52 ug/ml in artificial diet (reference value: 281.5 +/- 10.3 mg)
Spodoptera frugiperda [16] = assay: Insecticidal activity against Spodoptera frugiperda (fall armyworm) assessed as mean time to pupation at 25 ug/ml in artificial diet (reference value: 22 days)
Spodoptera frugiperda [17] = assay: Insecticidal activity against Spodoptera frugiperda (fall armyworm) assessed as mean weight gain at 52 ug/ml in artificial diet measured after 7 days (reference value: 469.5 +/- 6.59 mg)
Spodoptera frugiperda [18] = assay: Insecticidal activity against Spodoptera frugiperda (fall armyworm) assessed as mean length at 52 ug/ml in artificial diet measured after 7 days (reference value: 0.95 +/- 0.2 cm)
Spodoptera frugiperda [19] = assay: Insecticidal activity against Spodoptera frugiperda (fall armyworm) assessed as mean emergence at 52 ug/ml in artificial diet (reference value: 83.3 %)
Spodoptera frugiperda [20] = assay: Insecticidal activity against Spodoptera frugiperda (fall armyworm) assessed as mean length at 25 ug/ml in artificial diet measured after 7 days (reference value: 0.95 +/- 0.2 cm)
Spodoptera frugiperda [21] = assay: Insecticidal activity against Spodoptera frugiperda (fall armyworm) assessed as mean pupation at 5 ug/ml in artificial diet (reference value: 87.5 %)
Spodoptera frugiperda [22] = assay: Insecticidal activity against Spodoptera frugiperda (fall armyworm) assessed as mean length at 5 ug/ml in artificial diet measured after 7 days (reference value: 0.95 +/- 0.2 cm)
Spodoptera frugiperda [23] = assay: Insecticidal activity against Spodoptera frugiperda (fall armyworm) assessed as mean weight gain at 52 ug/ml in artificial diet measured after 7 days (reference value: 75.5 +/- 8.24 mg)
Spodoptera frugiperda [24] = assay: Insecticidal activity against Spodoptera frugiperda (fall armyworm) assessed as mean length at 25 ug/ml in artificial diet measured after 7 days (reference value: 28 +/- 4.1 mg)
Spodoptera frugiperda [25] = assay: Insecticidal activity against Spodoptera frugiperda (fall armyworm) assessed as mean pupation at 25 ug/ml in artificial diet (reference value: 87.5 %)
Spodoptera frugiperda [26] = assay: Insecticidal activity against Spodoptera frugiperda (fall armyworm) assessed as mean emergence at 5 ug/ml in artificial diet (reference value: 83.3 %)
Spodoptera frugiperda [27] = assay: Insecticidal activity against Spodoptera frugiperda (fall armyworm) assessed as mean emergence days at 5 ug/ml in artificial diet (reference value: 33 days)
Spodoptera frugiperda [28] = assay: Insecticidal activity against Spodoptera frugiperda (fall armyworm) assessed as mortality at 25 ug/ml in artificial diet measured after 7 days (reference value: 8.33%); conditions: 168 h
Spodoptera frugiperda [29] = assay: Insecticidal activity against Spodoptera frugiperda (fall armyworm) assessed as mortality at 52 ug/ml in artificial diet measured after 7 days (reference value: 8.33%); conditions: 168 h
Spodoptera frugiperda [30] = assay: Insecticidal activity against Spodoptera frugiperda (fall armyworm) assessed as mean length at 70 ug/ml in artificial diet measured after 7 days (reference value: 0.95 +/- 0.2 cm)
Spodoptera frugiperda [31] = assay: Insecticidal activity against Spodoptera frugiperda (fall armyworm) assessed as mean emergence at 25 ug/ml in artificial diet (reference value: 83.3 %)
Spodoptera frugiperda [32] = assay: Insecticidal activity against Spodoptera frugiperda (fall armyworm) assessed as mortality at 70 ug/ml in artificial diet measured after 7 days (reference value: 8.33%); conditions: 168 h
Spodoptera frugiperda [33] = assay: Insecticidal activity against Spodoptera frugiperda (fall armyworm) assessed as mean length at 52 ug/ml in artificial diet measured after 7 days (reference value: 28 +/- 4.1 mg)

## CCC(=O)[C@@H]1C(=O)O[C@@]2(C=O)[C@H]1[C@](C)([C@@H](OC(C)=O)c1ccoc1)CC[C@@H]2[C@@]1(C)C(=O)C[C@@H]2O[C@@H](C(=O)OC)[C@H]1C2(C)C [CEDRELANOLIDE]
Spodoptera frugiperda [1]
  Time: 33 days
Spodoptera frugiperda [2]
  Time: 22 days
Spodoptera frugiperda [3]
  Time: 33 days
Spodoptera frugiperda [4]
  Activity: 8.7 mm
Spodoptera frugiperda [5]
  Activity: 9.1 mg
Spodoptera frugiperda [6]
  Activity: 221.9 mg
Spodoptera frugiperda [7]
  Time: 22.5 days
Spodoptera frugiperda [8]
  Activity: 41.6 mg
Spodoptera frugiperda [9]
  Activity: 55.7 mg
Spodoptera frugiperda [10]
  Activity: 191.8 mg
Spodoptera frugiperda [11]
  Activity: 62.5%
Spodoptera frugiperda [12]
  Activity: 27.85 mg
Spodoptera frugiperda [13]
  mortality at 5 µg/mL: 15%
Spodoptera frugiperda [14]
  Activity: 20.8 mg
Spodoptera frugiperda [15]
  Activity: 123.9 mg
Spodoptera frugiperda [16]
  Time: 21.5 days
Spodoptera frugiperda [17]
  Activity: 40.1 mg
Spodoptera frugiperda [18]
  Activity: 0.7 cm
Spodoptera frugiperda [19]
  Activity: 50%
Spodoptera frugiperda [20]
  Activity: 0.95 cm
Spodoptera frugiperda [21]
  Activity: 79.2%
Spodoptera frugiperda [22]
  Activity: 1.2 cm
Spodoptera frugiperda [23]
  Activity: 15.4 mg
Spodoptera frugiperda [24]
  Activity: 6.7 mm
Spodoptera frugiperda [25]
  Activity: 66.7%
Spodoptera frugiperda [26]
  Activity: 79.2%
Spodoptera frugiperda [27]
  Time: 33 days
Spodoptera frugiperda [28]
  mortality at 25 µg/mL: 21%
Spodoptera frugiperda [29]
  mortality at 52 µg/mL: 28%
Spodoptera frugiperda [30]
  Activity: 0.51 cm
Spodoptera frugiperda [31]
  Activity: 62.5%
Spodoptera frugiperda [32]
  mortality at 70 µg/mL: 38%
Spodoptera frugiperda [33]
  Activity: 5.3 mm

Reference: ChEMBL document CHEMBL3046424, “Growth inhibitory effects on fall armyworm Spodoptera frugiperda of some limonoids isolated from Cedrela spp. (Meliaceae)” (2000)
